Test results published in US20160361311A1, “LIGANDS THAT TARGET HEPATITIS C VIRUS E2 PROTEIN” (AMERICAN UNIVERSITY OF CAIRO, priority 2014, published 2016).
pIC50: −log10 of the molar value. Where two headings read alike, the source gives them in different places.

Columns and labels:
RD114pp = RD114pp infection of Huh-7 cells (luciferase); assay type: cell-based, feline endogenous virus RD114; conditions: read-out: IC50 RD114pp
Protocol: (§1) Pseudotyped retroviral particles harboring HCV envelope proteins (HCVpp) from different genotypes were produced as described previously. A plasmid encoding the feline endogenous virus RD114 glycoprotein [35] was used for the production of RD114pp. Both HCVpp and RD114pp expressed Firefly luciferase.
(§2) To identify ligands that inhibit HCV infection, Huh-7 cells were seeded in 96-well plates and treated the day after with six different concentrations of each ligand diluted in DMSO in duplicate using a Zephyr automated liquid handling workstation (Caliper BioSciences, Hopkinton, Mass.). The final concentration of DMSO (1%) was adjusted to be the same for all ligand concentrations. Cells treated with DMSO were used as negative controls. Cells treated with different concentrations of anti-CD81 (JS-81 from BD Pharmingen, San Jose, Calif.) 1 hour before infection, were also used as positive controls. The third day, RD114pp, HCVpp or HCVcc were inoculated and incubated for 30 hours at 37° C. Firefly and Gaussia luciferase assays were performed as indicated by the manufacturer (Promega, San Luis Obispo, Calif.).
Pseudotyped retroviral particles harboring the envelope protein of an endogenous feline retrovirus (RD114pp) were first used to determine the specificity and the safety of molecules.

HCVpp 2a = HCVpp 2a infection of Huh-7 cells, 96-well (luciferase); assay type: cell-based, HCV; conditions: Hepatitis C virus, Huh-7, 30 h, read-out: IC50 HCVpp
Protocol: as §1, §2
(§3) The remaining ligands were next tested against pseudotyped retroviral particles harboring genotype-2a HCV envelope proteins (HCVpp 2a), cell culture produced HCV particles (HCVcc) or RD114pp. As a positive control, an anti-CD81 antibody was used in parallel.

HCVcc = HCVcc infection of Huh-7 cells (Gaussia luciferase); assay type: cell-based, HCV; conditions: Hepatitis C virus, Huh-7, 30 h, read-out: IC50 HCVcc
Protocol: The cell culture-produced HCV particles (HCVcc) used in this study were based on the JFH1 strain [36] and were prepared as described previously. They were engineered to express the A4 epitope, titer-enhancing mutations and Gaussia luciferase.
as §2, §3

recombinant E2 protein = target: T1, recombinant E2 protein (Hepatitis C virus genotype 1b, UniProt Q9WMX2); test: Surface plasmon resonance (Biacore T100) binding to recombinant E2 immobilized on CM5 chip; conditions: for Binding (RU): 200 μM ligand in PBS, 3 min association; for rate of ligand dissociation (in words): compared to the other ligands; for Dissociation 1 (RU): response remaining 10 sec after rinsing with buffer; for Dissociation 2 (RU): response remaining 50 sec after rinsing with buffer
T1 construct: encoding amino acids 384-656 of the Con1 envelope protein 2 ectodomain (eE2); made in house; host or cells: HEK293T cells (lentiviral, secreted)
Source text: A construct containing the sequence encoding amino acids 384-656 of the Con1 envelope protein 2 ectodomain (eE2), a genoptype 1 E2 sequence, was cloned into a lentiviral expression vector with a carboxy-terminal Protein A tag separated by a PreScission Protease cleavage consensus sequence. eE2-ProtA was stably expressed in HEK293T cells using lentiviral infection. The protein was secreted into the media and supernatants were purified using IgG Sepharose (GE Healthcare, Piscataway, N.J.). eE2-ProtA was eluted with 100 mM sodium citrate and 20 mM KCl at pH 3 directly into tubes containing 1M Tris pH 9 for immediate neutralization. PreScission Protease was added to the eluted sample at a ratio of 1:50 (enzyme:eE2), and the digest was then dialyzed into 20 mM HEPES pH 7.5, 250 mM NaCl, 5% glycerol. eE2 was separated from the cleaved tag and the PreScission Protease by ion exchange chromatography.
The set of 34 of the ligands predicted by AutoDock to bind to E2 were tested experimentally to determine if they bind to recombinant E2 protein immobilized on a chip using surface Plasmon resonance. The SPR analyses were performed using a Biacore T100 workstation (GE Healthcare, NJ, USA) and Prot-A-tagged HCV E2 protein. 1 μM ProtA-HCV E2 was diluted into 10 mM sodium acetate buffer pH 5 and immobilized for 15 min at a flow speed of 5 μl/min onto a CM5 sensor chip using amine coupling (EDC-NHS). Approximately 10,000 response units (RU) of protein were immobilized on the chip. His-CD81-LEL (Bioclone-CA/USA) binding to HCV E2 was tested prior to injecting the ligands to confirm the E2 protein was functional and would bind CD81-LEL. In a typical experiment with CD81, […] of his-CD81 in 114 μl PBS was injected into channel 2 and 106.4 RUs of CD81 bound to the E2 on the chip. This was followed by testing the binding of the 34 virtual screening hits where the ligands were prepared as 200 μM solutions in PBS and they were introduced to the protein using a pre-programmed 3 min association and 1 min dissociation interval. The response was measured at two time points during dissociation, 10 and 50 seconds, to obtain information on the rate of ligand dissociation from E2. Twenty-three of the ligands predicted by AutoDock to bind to E2 were observed by SPR to bind to the recombinant protein (Table 2). The measured responses for the ligands that bound varied from 54 to 276 RUs. Data was also obtained on the rate of ligand dissociation by measuring the amount of ligand remaining bound at two time points, dissociation 1 (10 seconds) and dissociation 2 (50 seconds), during the rinsing of the chip with buffer (FIG. 8). The majority of the ligands dissociated quickly, as one might expect for small molecules that bind to the surface of a protein.

[1] = Feline endogenous virus RD114, Huh-7, 30 h

T1 sequence (Q9WMX2 384-656): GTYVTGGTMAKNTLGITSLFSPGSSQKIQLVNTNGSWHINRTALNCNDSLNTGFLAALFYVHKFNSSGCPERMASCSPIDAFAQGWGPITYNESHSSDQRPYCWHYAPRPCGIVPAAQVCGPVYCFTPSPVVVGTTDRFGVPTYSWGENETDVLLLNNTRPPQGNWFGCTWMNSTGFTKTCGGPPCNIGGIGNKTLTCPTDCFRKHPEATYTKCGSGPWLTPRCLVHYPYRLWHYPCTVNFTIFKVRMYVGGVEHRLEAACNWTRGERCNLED

| SMILES | pIC50 (RD114pp; [1]) | pIC50 (HCVpp 2a) | pIC50 (HCVcc) | binding to recombinant E2 protein by SPR (in words) (recombinant E2 protein) | Binding (RU) (recombinant E2 protein) | rate of ligand dissociation (in words) (recombinant E2 protein) | Dissociation 1 (RU) (recombinant E2 protein) | Dissociation 2 (RU) (recombinant E2 protein) | pIC50 (RD114pp; Huh-7 cells, 30 hours) |
| --- | --- | --- | --- | --- | --- | --- | --- | --- | --- |
| O=C(O)C[C@H]1OCC=C2CN3CC[C@]45c6ccccc6N[C@H]4[C@H]1[C@H]2C[C@H]35 [Ligand 121861] | < 5.00 | < 5.00 | < 5.00 | bound | 88.4 RU | slower off rates | 26.1 RU | 20.4 RU |  |
| NC1=N[C@@H](c2ccc(Cl)cc2)N(c2ccc(S(N)(=O)=O)cc2)C(N)=N1 [Ligand 117268] | 7.00 | < 5.00 | < 5.00 |  | 88.5 RU |  | 4.1 RU | 1.2 RU |  |
| COc1ccc(C2=C[C@@H](c3ccc(OC)c(OC)c3)c3c(c4ccccc4oc3=O)O2)cc1OC [Ligand 211490, (4S)-2,4-bis(3,4-dimethoxyphenyl)-4H-pyrano[3,2-c]chromen-5-one] | 6.30 |  |  |  | 102.9 RU |  | 6.1 RU | 2.1 RU |  |
| C[C@]12CC[C@@H]3c4ccc(OCC(=O)O)cc4CC[C@H]3[C@@H]1CCC2=O [Ligand 86467, 2-[[(8R,9S,13S,14S)-13-methyl-17-oxo-7,8,9,11,12,14,15,16-octahydro-6H-cyclopenta[a]phenanthren-3-yl]oxy]acetate] | < 5.00 | < 5.00 | < 5.00 | bound | 54.9 RU |  | 1.9 RU | 0.8 RU |  |
| C1C[C@H]2NCC[C@@H]3NCC[C@H](N1)N32 [Ligand 81462] | < 5.00 | < 5.00 | < 5.00 |  | 57.2 RU | slower off rates | 9.2 RU | 6.5 RU |  |
| CCCc1nc(NC(=O)c2ccccc2)nc(NC(=O)c2ccccc2)n1 [Ligand 359472, N-(4-benzamido-6-propyl-1,3,5-triazin-2-yl)benzamide] | < 5.00 | < 5.00 | < 5.00 |  | 62 RU |  | 2.5 RU | 0.8 RU |  |
| Cc1ccc([N+](=O)[O-])cc1NC(=O)Nc1onc(C)c1C [Ligand 213700, 1-(3,4-dimethyl-1,2-oxazol-5-yl)-3-(2-methyl-5-nitrophenyl)urea] | < 5.00 | < 5.00 | < 5.00 |  | 62 RU |  | 3.1 RU | 0.8 RU |  |
| Cc1cc(-c2ccc(N3C(=O)CC4(CCCC4)C3=O)c(C)c2)ccc1N1C(=O)CC2(CCCC2)C1=O [Ligand 308835, 2-[4-[4-(1,3-dioxo-2-azaspiro[4.4]nonan-2-yl)-3-methylphenyl]-2-methylphenyl]-2-azaspiro[4.4]nonane-1,3-dione] | < 5.00 | < 5.00 | < 5.00 |  | 64.8 RU |  | 7.1 RU | 5.2 RU |  |
| CC[C@@]1(O)C(=O)OCc2c1cc1n(c2=O)Cc2cc3c(NC(=O)CN)cccc3nc2-1.Cl [Ligand 639174] |  |  |  |  | 55.4 RU |  | 2.3 RU | 0.6 RU | 7.52 |
| Cc1ccc([N+](=O)[O-])cc1NC(=O)Nc1ccc(S(N)(=O)=O)cc1 [Ligand 146554, 1-(2-methyl-5-nitrophenyl)-3-(4-sulfamoylphenyl)urea] | < 5.00 |  |  |  | 63.4 RU |  | 3.1 RU | 0.8 RU |  |
| NC(=O)C(=Cc1ccncc1)c1cccc2ccccc12 (stereo in doubt) [Ligand 144694, (E)-2-naphthalen-1-yl-3-pyridin-4-ylprop-2-enamide] | < 5.00 | < 5.00 | < 5.00 |  | 118.8 RU |  | 6 RU | 2.3 RU |  |
| CC12CCC3C(CCC4Cc5[nH]c6ccccc6c5CC43C)C1CCC2O (centres unmarked) [Ligand 60785] | 5.46 |  |  |  | 70.4 RU |  | 2.8 RU | 0.6 RU |  |
| O=[N+]([O-])c1cc([N+](=O)[O-])c2cccnc2c1O [Ligand 57103] | 6.52 |  |  |  | 81.6 RU | slower off rates | 11.4 RU | 2.5 RU |  |
| O=S(=O)(F)c1ccc2nc(-c3cccc(Sc4ccccc4)c3)cc(Cl)c2c1 [Ligand 158413, 4-chloro-2-(3-phenylsulfanylphenyl) quinoline-6-sulfonyl fluoride] | < 5.00 | < 5.00 | < 5.00 |  | 71.2 RU | slower off rates | 10.3 RU | 8.5 RU |  |
| Cc1nc(/N=C(\N)N(C)C)[nH]c(=O)c1C [Ligand 113486, 2-(5,6-dimethyl-4-oxo-1H-pyrimidin-2-yl)-1,1-dimethylguanidine] | < 5.00 | < 5.00 | < 5.00 |  | 104.7 RU |  | 7 RU | 2.6 RU |  |
| c1ccc(-c2ccc3c(c2)N[C@H]([C@H]2Nc4cc(-c5ccccc5)ccc4O2)O3)cc1 [Ligand 84100, (2S)-5-phenyl-2-[(2S)-5-phenyl-2,3-dihydro-1,3-benzoxazol-2-yl]-2,3-dihydro-1,3-benzoxazole] | < 5.00 | < 5.00 | < 5.00 |  | 71.2 RU |  | 4.2 RU | 2.2 RU |  |
| CC1(C)N=C(N)N=C(N)N1c1ccc(OCCCOc2ccccc2)c(Cl)c1 [Ligand 133071, 3-[3-chloro-4-(3-phenoxypropoxy)phenyl]-4,4-dimethyl-1H-1,3,5-triazin-3-ium-2,6-diamine] | 7.00 |  |  |  | 276.3 RU |  | 1.8 RU | −2 RU |  |
| O=C1CCCc2cc3c(cc21)CC1(C3)Cc2cc3c(cc2C1)C(=O)CCC3 [Ligand 670283, 2,2′-spirobi[3,6,7,8-tetrahydro-1H-cyclopenta[g]naphthalene]-5,5′-dione] | 5.52 |  |  |  | 54.3 RU |  | 4 RU | 1.4 RU |  |
| NC1=N/C(=N\c2ccccc2)N[C@H](c2ccccc2)N1 [Ligand 3076, (4R)-6-N,4-diphenyl-1,4-dihydro-1,3,5-triazine-2,6-diamine] | 6.60 |  |  |  | 92.2 RU |  | 3.2 RU | 1.6 RU |  |
